One experiment concerns the target T1, ADAR1 (Homo sapiens, UniProt P55265).
T1 construct: endogenous in cells; host or cells: p110 KO A549 dual cells
T1 sequence (P55265 1-1226): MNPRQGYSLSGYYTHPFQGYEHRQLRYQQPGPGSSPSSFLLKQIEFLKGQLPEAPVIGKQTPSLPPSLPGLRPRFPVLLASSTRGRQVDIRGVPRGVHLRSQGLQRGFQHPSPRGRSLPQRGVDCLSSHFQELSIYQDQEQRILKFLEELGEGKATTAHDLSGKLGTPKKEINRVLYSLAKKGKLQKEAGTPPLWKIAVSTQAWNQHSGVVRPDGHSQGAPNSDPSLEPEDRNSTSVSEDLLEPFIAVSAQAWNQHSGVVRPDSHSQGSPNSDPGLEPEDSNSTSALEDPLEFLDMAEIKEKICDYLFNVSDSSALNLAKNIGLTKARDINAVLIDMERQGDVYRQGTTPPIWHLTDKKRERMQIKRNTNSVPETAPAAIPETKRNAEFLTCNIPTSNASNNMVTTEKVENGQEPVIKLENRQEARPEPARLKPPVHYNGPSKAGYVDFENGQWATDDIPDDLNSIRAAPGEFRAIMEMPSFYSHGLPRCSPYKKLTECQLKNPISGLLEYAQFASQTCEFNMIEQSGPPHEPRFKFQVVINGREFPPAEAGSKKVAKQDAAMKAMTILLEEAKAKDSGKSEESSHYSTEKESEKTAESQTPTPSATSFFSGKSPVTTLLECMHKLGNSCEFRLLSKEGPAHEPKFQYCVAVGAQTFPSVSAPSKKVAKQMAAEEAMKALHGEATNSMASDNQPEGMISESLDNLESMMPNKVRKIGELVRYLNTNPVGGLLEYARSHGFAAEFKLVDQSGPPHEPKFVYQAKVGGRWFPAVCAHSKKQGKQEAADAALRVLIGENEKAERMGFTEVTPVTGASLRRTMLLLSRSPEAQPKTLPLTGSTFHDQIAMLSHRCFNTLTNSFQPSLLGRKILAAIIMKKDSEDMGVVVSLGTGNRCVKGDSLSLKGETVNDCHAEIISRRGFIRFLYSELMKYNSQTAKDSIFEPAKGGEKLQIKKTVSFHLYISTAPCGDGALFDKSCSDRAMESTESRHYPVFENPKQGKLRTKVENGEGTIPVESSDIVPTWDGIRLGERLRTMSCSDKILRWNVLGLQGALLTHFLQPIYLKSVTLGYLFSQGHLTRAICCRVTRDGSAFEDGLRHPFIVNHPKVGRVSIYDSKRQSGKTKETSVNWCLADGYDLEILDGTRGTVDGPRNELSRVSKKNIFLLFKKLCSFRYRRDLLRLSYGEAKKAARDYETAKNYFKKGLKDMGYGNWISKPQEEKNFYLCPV
Description: ADAR1 Inhibition Assay (IFN fold-induction, Quanti-Luc luminescence, p110 KO A549 dual cells). The format is cell-based. As to conditions: IFN fold-induction vs DMSO, 24 and 48 h. The method in brief: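 p110 KO A549 dual cells (20,000/well) in supplemented DMEM, treated next day with compound at 1% final DMSO for 24 and 48 h at 37 °C, 5% CO2. Supernatant luminescence read with Quanti-Luc; IFN fold-induction = sample RLU/mean DMSO RLU, used for EC50.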

In the next experiment the target is T2, Zα domain of ADAR1 p150 (Homo sapiens, UniProt P55265).
T2 construct: 10 μg/ml of Zα domain of ADAR1 was immobilized on CM5 chip using anti-HIS antibody; made in house
T2 sequence (P55265 133-199 limits assumed): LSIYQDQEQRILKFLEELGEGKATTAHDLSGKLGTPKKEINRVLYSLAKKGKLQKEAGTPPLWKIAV
Kind of experiment: SPR binding assay. To be noted: 6× his tag Zα domain immobilized on CM5 chip, analyte 0-25 μM. The procedure: 6× his tag Za domain of ADAR1 p150 was purified using bacterial purification system. Protein was isolated from supernatant of cell lysate using Ni-NTA resin. For binding assay using SPR, 10 μg/ml of Zα domain of ADAR1 was immobilized on CM5 chip using anti-HIS antibody. Binding was quantified using the following condition below: • Analyte: 25, 12.5, 6.25, 3.125, 1.56, 0.78, 0 μM • Contact time—60 seconds, • Dissociation time—320 seconds • Flow rate—30 μL/minute Running buffer-PBSP+5% DMSO • After curve fitting, Kd values for synthesized compounds was quantified using the instrument software.
Background: In SPR one partner is held on a chip, and binding of the other changes the refractive index at the surface.

For orientation: EC50 means the concentration needed to bring the measured effect to its halfway point. Lower therefore signals a more potent agent. For orientation: Kd means the concentration at which binding is half-saturated. Higher therefore signals a looser complex.

At ADAR1, `CCOC(=O)c1cc(-c2ccccc2)sc1NC(=O)CC(=O)NCc1cccc(NS(C)(=O)=O)c1` [Compound 369] registered an EC50 greater than 100 µM. Moreover, the Kd on Zα domain of ADAR1 p150 is greater than 25 µM.
Taken in the same sequence, the figures for `CCOC(=O)c1cc(-c2ccccc2)ncc1NC(=O)COC(=O)c1cccc(NS(C)(=O)=O)c1` [Compound 372] were greater than 100 µM and greater than 25 µM.
The like results for `CCNC(=O)c1cc(-c2ccccc2)sc1NC(=O)CNC(=O)Cc1cccc(NS(C)(=O)=O)c1` [Compound 376] were, in that order, greater than 100 µM and no more than 1 µM.
On ADAR1, `CCOC(=O)c1cc(-c2ccccc2)sc1NC(=O)C1CCCCN1C(=O)Cc1cccc(NS(C)(=O)=O)c1` (stereo not shown) [Compound 380] registered a concentration giving a half-maximal response (EC50) greater than 100 µM. The Kd on Zα domain of ADAR1 p150 is no more than 1 µM.
The like results for `CCNC(=O)c1cc(-c2ccccc2)sc1NC(=O)CN(C)C(=O)Cc1cccc(NS(C)(=O)=O)c1` [Compound 384] were, in that order, greater than 100 µM and 1 to 10 µM.
The like results for `CCOC(=O)c1cc(-c2ccccc2)sc1NC(=O)Cn1cc(-c2cccc(P(=O)(OCC)OCC)c2)nn1` [Compound 385] were, in that order, greater than 100 µM and no more than 1 µM.
As to `CCOC(=O)c1cc(-c2ccccc2)sc1NC(=O)Cn1cc(-c2cccc(P(=O)(O)O)c2)nn1` [Compound 386], on ADAR1, the EC50 was greater than 100 µM. The same compound had a Kd on Zα domain of ADAR1 p150 greater than 25 µM.
Consider `CCOC(=O)c1cc(-c2ccccc2)ncc1NC(=O)CNC(=O)Cc1cccc(NS(C)(=O)=O)c1` [Compound 387], for which the half-maximal effective concentration (EC50) at ADAR1 is greater than 100 µM. Further, the dissociation constant (Kd) on Zα domain of ADAR1 p150 is no more than 1 µM.
`CCOC(=O)c1cc(-c2ccc(P(=O)(O)O)cc2)sc1NC(=O)COC(=O)c1cccc(NS(C)(=O)=O)c1` [Compound 388] came in with an EC50 on ADAR1 greater than 100 µM. At Zα domain of ADAR1 p150, the dissociation constant Kd was no more than 1 µM.
Taken in the same sequence, the figures for `CCOC(=O)c1cc(-c2ccc(P(=O)(OCC)OCC)cc2)sc1NC(=O)COC(=O)c1cccc(NS(C)(=O)=O)c1` [Compound 389] were greater than 100 µM and greater than 25 µM.
The like results for `CCOC(=O)c1cc(-c2ccccc2)[nH]c1NC(=O)CNC(=O)c1cccc(NS(C)(=O)=O)c1` [Compound 395] were, in that order, greater than 100 µM and greater than 25 µM.
Taken in the same sequence, the figures for `CCOC(=O)c1cc(-c2ccccc2)sc1NC(=O)COC(=O)C1(c2cccc(NS(C)(=O)=O)c2)CCCC1` [Compound 396] were greater than 100 µM and no more than 1 µM.
`CCOC(=O)c1cc(-c2ccccc2)sc1NC(=O)[C@H]1CCN(Cc2cccc(P(=O)(O)O)c2)C1` [Compound 397] gave a 50% effective concentration (EC50) at ADAR1 greater than 100 µM. Besides, at Zα domain of ADAR1 p150, the Kd was no more than 1 µM.
The like results for `CCOC(=O)c1cc(-c2ccccc2)sc1NC(=O)[C@@H]1CCN(Cc2cccc(P(=O)(O)O)c2)C1` [Compound 398] were, in that order, greater than 100 µM and greater than 25 µM.
The like results for `CCOC(=O)c1cc(-c2ccccc2)sc1NC(=O)COC(=O)c1cccc(S(=O)(=O)NC(C)=O)c1` [Compound 399] were, in that order, greater than 100 µM and no more than 1 µM.
The like results for `CCOC(=O)c1sc(-c2ccccc2)cc1NC(=O)COC(=O)c1cccc(P(=O)(O)O)c1` [Compound 400] were, in that order, greater than 100 µM and 1 to 10 µM.
On ADAR1, `CCOC(=O)c1cc(-c2ccccc2)sc1NC(=O)CNC(=O)Cc1ccc(P(=O)(OCC)OCC)cc1` [Compound 402] came in with a half-maximal effective concentration (EC50) of 50 to 100 µM. This compound also yielded an equilibrium dissociation constant (Kd) at Zα domain of ADAR1 p150 of no more than 1 µM.
Consider `CCOC(=O)c1cc(-c2ccccc2)[nH]c1NC(=O)[C@@H]1CCN(C(=O)c2cccc(P(=O)(OC)OCC)c2)C1` (stereo partly shown) [Compound 403], for which the EC50 on ADAR1 was in the range of 50 to 100 µM. At Zα domain of ADAR1 p150, this compound displayed a Kd greater than 25 µM.
The like results for `CCOC(=O)c1cc(-c2ccccc2)sc1NC(=O)CNC(=O)Cc1ccc(P(=O)(O)O)cc1` [Compound 405] were, in that order, 50 to 100 µM and no more than 1 µM.
The compound `CCOC(=O)c1cc(-c2ccccc2)sc1NC(=O)[C@H]1CCN(C(=O)c2cccc(P(=O)(OCC)OCC)c2)C1` [Compound 406] came in with an EC50 on ADAR1 of 50 to 100 µM. This compound displayed a dissociation constant (Kd) at Zα domain of ADAR1 p150 of no more than 1 µM.
As to `CCOC(=O)c1cc(-c2ccccc2)sc1NC(=O)Cn1cc(CNC(=O)c2cccc(P(=O)(O)O)c2)nn1` [Compound 409], the concentration for a half-maximal effect (EC50) on ADAR1 was greater than 100 µM. Further, the Kd on Zα domain of ADAR1 p150 is no more than 1 µM.
Taken in the same sequence, the figures for `CCOC(=O)c1cc(-c2ccccc2)[nH]c1NC(=O)C1CCN(C(=O)c2cccc(NS(C)(=O)=O)c2)C1` (stereo not shown) [Compound 412] were greater than 100 µM and greater than 25 µM.
Taken in the same sequence, the figures for `CCOC(=O)c1cc(-c2ccccc2)sc1NC(=O)[C@H]1CCCN1C(=O)c1cccc(P(=O)(O)O)c1` [Compound 414] were greater than 100 µM and no more than 1 µM.
The like results for `CCOC(=O)c1cc(-c2ccccc2)sc1NC(=O)[C@@H]1CCN(C(=O)c2cccc(P(=O)(OCC)OCC)c2)C1` [Compound 415] were, in that order, greater than 100 µM and no more than 1 µM.
With `CCOC(=O)c1cc(-c2ccccc2)sc1NC(=O)CNC(=O)c1cccc(S(N)(=O)=O)c1` [Compound 416], the concentration giving a half-maximal response (EC50) on ADAR1 was greater than 100 µM. Further, at Zα domain of ADAR1 p150, the dissociation constant (Kd) is no more than 1 µM.
Taken in the same sequence, the figures for `CCOC(=O)c1nc(-c2ccccc2)oc1NC(=O)COC(=O)c1cccc(P(=O)(O)O)c1` [Compound 418] were greater than 100 µM and greater than 10 µM.
Taken in the same sequence, the figures for `CCOC(=O)c1cc(-c2ccccc2)sc1NC(=O)Cn1cc(C(=O)Nc2cccc(P(=O)(O)O)c2)nn1` [Compound 420] were greater than 100 µM and no more than 1 µM.
In turn, `CCOC(=O)c1cc(-c2ccccc2)sc1NC(=O)COC(=O)c1ccc(P(=O)(OCC)OCC)cc1` [Compound 421] had an EC50 on ADAR1 greater than 100 µM. Further, at Zα domain of ADAR1 p150, the Kd was no more than 1 µM.
The like results for `CCOC(=O)c1cc(-c2ccccc2)sc1NC(=O)COC(=O)c1ccc(P(=O)(O)O)cc1` [Compound 424] were, in that order, greater than 100 µM and no more than 1 µM.
Turning to `CCOC(=O)c1cc(-c2ccccc2)sc1NC(=O)[C@H]1CCN(C(=O)c2cccc(S(N)(=O)=O)c2)C1` [Compound 426], on ADAR1, the concentration giving a half-maximal response (EC50) is greater than 100 µM. The Kd at Zα domain of ADAR1 p150 is no more than 1 µM.
Taken in the same sequence, the figures for `CCOC(=O)c1cc(-c2ccccc2)sc1NC(=O)Cn1cc(-c2cccc(S(N)(=O)=O)c2)nn1` [Compound 427] were greater than 100 µM and no more than 1 µM.
Taken in the same sequence, the figures for `CCOC(=O)c1cc(-c2ccccc2)sc1NC(=O)[C@H]1CCN(C(=O)c2cccc(S(=O)(=O)NC(C)=O)c2)C1` [Compound 428] were greater than 100 µM and no more than 1 µM.

For the origin of these results see US20260200890A1, “ADAR1 INHIBITORS AND METHODS OF USING THE SAME” (AVAMMUNE THERAPEUTICS INC., priority 2022, published 2026).
